Laboratory results published in patent publication US7531555B2, “Compositions and methods for selective inhibition of nicotine acetylcholine receptors” (University of Florida Research Foundation, Inc., priority 2003, dated 2009).
Like-named read-outs stand apart in the source and are kept apart here.

What was measured:
Format in all cases: cell-based
[1] = molecular target: T1, Human α3β2α5 (Homo sapiens, UniProt P17787+P30532+P32297); test: Voltage clamp of Xenopus oocytes expressing human α3β2α5 nAChR
T1 construct: expressed in transfected cells; host or cells: Xenopus laevis oocytes injected with subunit cRNAs
Description: (§1) Mature (>9 cm) female Xenopus laevis African frogs (NASCO, Ft. Atkinson, Wis.) were used as a source of oocytes. Prior to surgery, frogs were anesthetized by placing the animal in a 1.5 g/l solution of MS222 (3-aminobenzoic acid ethyl ester) for 30 minutes. Oocytes were removed from an incision made in the abdomen.
(§2) In order to remove the follicular cell layer, harvested oocytes were treated with 1.25 mg/ml collagenase from Worthington Biochemical Corporation (Freehold, N.J.) for 2 hours at room temperature in calcium-free Barth's solution (88 mM NaCl, 10 mM HEPES pH 7.6, 0.33 mM MgSO4, 0.1 mg/ml gentamicin sulfate). Subsequently, stage 5 oocytes were isolated and injected with 50 nl (5-20 ng) each of the appropriate subunit cRNAs. Recordings were made 2 to 15 days after injection.
(§3) After linearization and purification of cloned cDNAs, RNA transcripts were prepared in vitro using the appropriate mMessage mMachine kit from Ambion Inc. (Austin, Tex.).
Electrophysiology. The majority of experiments were conducted using OpusXpress 6000A (Axon Instruments, Union City Calif.). OpusXpress is an integrated system that provides automated impalement and voltage clamp of up to eight oocytes in parallel. Cells were automatically perfused with bath solution, and agonist solutions were delivered from a 96-well plate. Both the voltage and current electrodes were filled with 3 M KCl. The agonist solutions were applied via disposable tips, which eliminated any possibility of cross-contamination. Drug applications alternated between ACh controls and experimental applications. Flow rates were set at 2 ml/min for experiments with α7 receptors and 4 ml/min for other subtypes. Cells were voltage-clamped at a holding potential of −60 mV. Data were collected at 50 Hz and filtered at 20 Hz. Agonist applications were 12 seconds in duration followed by 181-second washout periods for α7 receptors and 8 seconds with 241-second wash periods for other subtypes. For some experiments, particularly under conditions where residual inhibition precluded making repeated measurements from single cells (see below), manual oocyte recordings were made as previously described (Papke and Papke Br J of Pharmacol, 2002, 137:49-61). […]
Experimental protocols and data analysis. […] In other experiments (Papke et al. J. Neurochem., 2000, 75:204-216; Papke and Papke Br J of Pharmacol, 2002, 137:49-61) these concentrations were determined to be the EC74, EC15, EC22, EC17, EC40, EC70, EC55, EC70 and EC100, respectively. […]
(§4) Responses to experimental drug applications were calculated relative to the preceding ACh control responses in order to normalize the data, compensating for the varying levels of channel expression among the oocytes. […]

[2] = molecular target: T2, Human α3β2 (Homo sapiens, UniProt P17787+P32297); test: Voltage clamp of Xenopus oocytes expressing human α3β2 nAChR
T2 construct: expressed in transfected cells; host or cells: Xenopus laevis oocytes injected with subunit cRNAs
Description: as §1, §2, §3
(§5) Electrophysiology. The majority of experiments were conducted using OpusXpress 6000A (Axon Instruments, Union City Calif.). OpusXpress is an integrated system that provides automated impalement and voltage clamp of up to eight oocytes in parallel. Cells were automatically perfused with bath solution, and agonist solutions were delivered from a 96-well plate. Both the voltage and current electrodes were filled with 3 M KCl. The agonist solutions were applied via disposable tips, which eliminated any possibility of cross-contamination. Drug applications alternated between ACh controls and experimental applications. Flow rates were set at 2 ml/min for experiments with α7 receptors and 4 ml/min for other subtypes. Cells were voltage-clamped at a holding potential of −60 mV. Data were collected at 50 Hz and filtered at 20 Hz. Agonist applications were 12 seconds in duration followed by 181-second washout periods for α7 receptors and 8 seconds with 241-second wash periods for other subtypes. For some experiments, particularly under conditions where residual inhibition precluded making repeated measurements from single cells (see below), manual oocyte recordings were made as previously described (Papke and Papke Br J of Pharmacol, 2002, 137:49-61). In brief, Warner Instruments (Hamden, Conn.) OC-725C oocyte amplifiers were used, and data were acquired with a minidigi or digidata 1200A with pClamp9 software (Axon Instruments). Sampling rates were between 10 and 20 Hz and the data were filtered at 6 Hz. Cells were voltage clamped at a holding potential of −50 mV.
Experimental protocols and data analysis. Each oocyte received two initial control applications of ACh, an experimental drug application (or co-application of ACh and TMPH), and then follow-up control application(s) of ACh. The control ACh concentrations for α1β1γδ, α3β4, α4β2, α3β2, α3β2α5, α3β2β3, α6/3β2β3 α6β4β3 and α7, receptors were 30 μM, 100 μM, 10 μM, 30 μM, 1 μM 100 μM 100 μM 100 μM and 300 μM, respectively. In other experiments (Papke et al. J. Neurochem., 2000, 75:204-216; Papke and Papke Br J of Pharmacol, 2002, 137:49-61) these concentrations were determined to be the EC74, EC15, EC22, EC17, EC40, EC70, EC55, EC70 and EC100, respectively. […]
as §4

[3] = molecular target: T3, α7 homomeric neuronal nAChR (Rattus norvegicus, UniProt Q05941); test: Voltage clamp of Xenopus oocytes expressing α7 nAChR
T3 construct: expressed in transfected cells; host or cells: Xenopus laevis oocytes injected with cRNA; clone from Dr. Jim Boulter (UCLA)
Description: as §1, §2
Rat neuronal nAChR clones and mouse muscle nAChR cDNA clones were used. The wild-type clones were obtained from Dr. Jim Boulter (UCLA). The rat α6/3 (Dowell et al. J Neurosci, 2003, 23:8445-8452) clone was obtained from Michael McIntosh (University of Utah) and expressed in Xenopus oocytes in combinations with rat β2 and β3. […] The TM2 domain is understood to line the pore of the channel, with alpha helix structure. The 7′ position may actually be directed away from the actual pore lining, but this residue is highly conserved in all of the nAChR. It is valine in all of them except α9 (isoleucine) and β1, where it is alanine. The TM2 mutation in the α6/3 chimera was corrected by using QuickChange (Stratagene) according to their protocols. The corrected α6/3 chimera sequence was confirmed by restriction diagnostics and by automated fluorescent sequencing (University of Florida core facility). The corrected clone was expressed as above in Xenopus oocytes with β2 and β3 and compared to the wild-type α3 co-expressed with β2 and β3.
as §3, §5
Experimental protocols and data analysis. Each oocyte received two initial control applications of ACh, an experimental drug application (or co-application of ACh and TMPH), and then follow-up control application(s) of ACh. The control ACh concentrations for α1β1γδ, α3β4, α4β2, α3β2, α3β2α5, α3β2β3, α6/3β2β3 α6β4β3 and α7, receptors were 30 μM, 100 μM, 10 μM, 30 μM, 1 μM 100 μM 100 μM 100 μM and 300 μM, respectively. […]

[4] = molecular target: T4, mouse muscle-type (α1β1εδ) nAChR (Mus musculus, UniProt P02716+P04756+P09690+P20782); test: Voltage clamp of Xenopus oocytes expressing muscle-type nAChR
T4 construct: expressed in transfected cells; host or cells: Xenopus laevis oocytes injected with subunit cRNAs; clones from Dr. Jim Boulter (UCLA)

[5] = inhibition still present after 5-minute wash, read-out: IC50 (recovery)

T1 sequence (P32297 32-505): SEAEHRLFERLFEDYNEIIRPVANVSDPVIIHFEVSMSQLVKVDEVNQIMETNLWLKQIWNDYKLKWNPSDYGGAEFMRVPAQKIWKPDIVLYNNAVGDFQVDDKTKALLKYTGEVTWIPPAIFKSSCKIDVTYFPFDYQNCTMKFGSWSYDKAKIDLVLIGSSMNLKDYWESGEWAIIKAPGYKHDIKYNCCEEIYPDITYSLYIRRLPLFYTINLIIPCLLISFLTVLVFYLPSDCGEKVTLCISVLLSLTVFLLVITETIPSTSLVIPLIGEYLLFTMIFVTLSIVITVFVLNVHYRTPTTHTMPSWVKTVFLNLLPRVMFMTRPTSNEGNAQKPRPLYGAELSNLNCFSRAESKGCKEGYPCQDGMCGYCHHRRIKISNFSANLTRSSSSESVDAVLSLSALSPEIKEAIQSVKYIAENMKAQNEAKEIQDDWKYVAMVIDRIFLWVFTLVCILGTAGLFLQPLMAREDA
T1 sequence (P17787 26-502): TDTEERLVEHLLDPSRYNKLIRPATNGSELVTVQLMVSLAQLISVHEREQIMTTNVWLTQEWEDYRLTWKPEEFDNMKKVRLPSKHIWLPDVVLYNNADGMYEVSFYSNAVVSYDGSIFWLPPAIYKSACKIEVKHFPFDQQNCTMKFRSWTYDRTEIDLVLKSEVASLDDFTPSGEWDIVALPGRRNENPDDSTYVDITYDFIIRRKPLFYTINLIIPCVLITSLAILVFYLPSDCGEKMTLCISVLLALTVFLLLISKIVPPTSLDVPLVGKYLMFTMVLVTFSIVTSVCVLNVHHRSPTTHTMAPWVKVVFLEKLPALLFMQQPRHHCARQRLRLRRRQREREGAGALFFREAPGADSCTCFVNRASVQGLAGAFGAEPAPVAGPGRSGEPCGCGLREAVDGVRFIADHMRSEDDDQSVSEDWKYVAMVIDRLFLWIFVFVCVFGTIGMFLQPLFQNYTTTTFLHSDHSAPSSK
T1 sequence (P30532 23-468): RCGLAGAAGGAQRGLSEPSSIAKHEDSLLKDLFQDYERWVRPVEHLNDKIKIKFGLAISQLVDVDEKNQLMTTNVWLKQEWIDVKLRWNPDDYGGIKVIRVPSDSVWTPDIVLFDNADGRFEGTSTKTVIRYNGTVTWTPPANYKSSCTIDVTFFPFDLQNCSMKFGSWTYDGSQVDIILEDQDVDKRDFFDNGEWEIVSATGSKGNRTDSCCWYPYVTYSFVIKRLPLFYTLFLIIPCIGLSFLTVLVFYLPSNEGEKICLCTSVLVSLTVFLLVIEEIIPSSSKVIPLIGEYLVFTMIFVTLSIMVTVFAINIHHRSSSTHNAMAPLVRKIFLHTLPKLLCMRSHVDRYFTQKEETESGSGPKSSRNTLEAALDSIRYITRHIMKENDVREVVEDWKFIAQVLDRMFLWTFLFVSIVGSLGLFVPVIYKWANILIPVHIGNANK
T2 sequence (P32297 32-505): as the sequence (P32297 32-505) above
T2 sequence (P17787 26-502): as the sequence (P17787 26-502) above
T4 sequence (P04756 21-457): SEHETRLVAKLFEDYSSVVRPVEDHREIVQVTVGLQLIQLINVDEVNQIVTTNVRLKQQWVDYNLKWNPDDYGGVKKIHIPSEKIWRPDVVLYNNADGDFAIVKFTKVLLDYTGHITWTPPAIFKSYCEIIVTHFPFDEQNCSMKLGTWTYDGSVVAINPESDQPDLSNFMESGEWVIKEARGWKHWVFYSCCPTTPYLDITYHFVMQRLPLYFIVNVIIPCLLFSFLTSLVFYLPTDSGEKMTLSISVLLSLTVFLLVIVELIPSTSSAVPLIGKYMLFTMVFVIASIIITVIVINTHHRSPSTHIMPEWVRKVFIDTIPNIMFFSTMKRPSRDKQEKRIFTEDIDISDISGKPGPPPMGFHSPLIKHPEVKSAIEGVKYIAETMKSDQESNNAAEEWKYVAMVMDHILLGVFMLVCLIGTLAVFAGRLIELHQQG
T4 sequence (P09690 24-501): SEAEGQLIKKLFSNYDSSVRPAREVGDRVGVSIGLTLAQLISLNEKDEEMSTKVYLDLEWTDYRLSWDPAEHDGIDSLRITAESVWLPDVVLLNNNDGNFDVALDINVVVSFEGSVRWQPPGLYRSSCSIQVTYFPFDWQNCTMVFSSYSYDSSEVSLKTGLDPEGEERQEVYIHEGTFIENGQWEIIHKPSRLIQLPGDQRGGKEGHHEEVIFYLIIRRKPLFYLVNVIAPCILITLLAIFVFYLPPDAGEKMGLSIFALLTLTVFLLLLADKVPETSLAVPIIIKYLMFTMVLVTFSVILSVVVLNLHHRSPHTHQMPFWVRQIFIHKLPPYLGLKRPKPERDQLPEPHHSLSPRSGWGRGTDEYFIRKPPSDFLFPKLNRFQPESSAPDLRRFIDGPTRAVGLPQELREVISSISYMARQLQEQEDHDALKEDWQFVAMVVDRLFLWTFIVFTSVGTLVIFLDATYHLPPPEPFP
T4 sequence (P20782 21-493): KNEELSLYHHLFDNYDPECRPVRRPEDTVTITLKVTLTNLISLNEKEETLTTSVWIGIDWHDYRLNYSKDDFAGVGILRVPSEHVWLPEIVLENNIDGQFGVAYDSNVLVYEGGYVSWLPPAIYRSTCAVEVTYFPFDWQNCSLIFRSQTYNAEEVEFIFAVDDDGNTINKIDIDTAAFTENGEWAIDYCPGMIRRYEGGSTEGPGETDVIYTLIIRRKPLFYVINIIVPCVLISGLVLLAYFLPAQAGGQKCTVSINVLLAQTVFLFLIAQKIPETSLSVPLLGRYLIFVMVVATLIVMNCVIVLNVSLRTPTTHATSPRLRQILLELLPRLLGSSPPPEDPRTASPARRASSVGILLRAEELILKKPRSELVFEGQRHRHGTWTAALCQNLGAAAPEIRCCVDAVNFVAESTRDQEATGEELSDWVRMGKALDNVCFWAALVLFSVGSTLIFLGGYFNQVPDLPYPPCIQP
T4 sequence (P02716 25-520): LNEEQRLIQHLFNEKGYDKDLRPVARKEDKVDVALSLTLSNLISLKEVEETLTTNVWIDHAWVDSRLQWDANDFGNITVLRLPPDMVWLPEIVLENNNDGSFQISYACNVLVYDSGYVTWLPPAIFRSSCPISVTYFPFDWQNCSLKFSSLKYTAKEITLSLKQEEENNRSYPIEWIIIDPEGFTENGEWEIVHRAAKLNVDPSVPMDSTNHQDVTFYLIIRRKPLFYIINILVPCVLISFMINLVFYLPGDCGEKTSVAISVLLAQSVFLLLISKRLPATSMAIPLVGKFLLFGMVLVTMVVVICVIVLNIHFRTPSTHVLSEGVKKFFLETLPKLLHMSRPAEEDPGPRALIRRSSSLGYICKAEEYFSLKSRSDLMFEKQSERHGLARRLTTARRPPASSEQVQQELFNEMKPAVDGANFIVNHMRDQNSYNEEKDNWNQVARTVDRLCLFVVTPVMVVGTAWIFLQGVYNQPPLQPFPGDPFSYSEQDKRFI
T3 sequence (Q05941 23-502): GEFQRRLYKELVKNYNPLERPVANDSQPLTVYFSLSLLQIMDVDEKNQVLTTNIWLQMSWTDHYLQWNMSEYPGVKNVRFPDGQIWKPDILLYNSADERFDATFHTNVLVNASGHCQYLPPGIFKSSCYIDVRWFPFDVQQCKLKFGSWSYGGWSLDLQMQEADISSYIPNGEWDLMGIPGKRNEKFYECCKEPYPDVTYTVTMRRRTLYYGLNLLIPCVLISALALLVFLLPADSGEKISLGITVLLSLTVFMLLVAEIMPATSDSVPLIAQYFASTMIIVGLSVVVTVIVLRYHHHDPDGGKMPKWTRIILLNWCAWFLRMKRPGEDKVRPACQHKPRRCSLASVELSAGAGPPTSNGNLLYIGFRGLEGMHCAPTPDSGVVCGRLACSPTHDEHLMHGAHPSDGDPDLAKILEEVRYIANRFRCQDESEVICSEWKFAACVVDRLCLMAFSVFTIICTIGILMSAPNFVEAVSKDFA

## CCCCCCC(=O)OC1CC(C)(C)NC(C)(C)C1 [TMPH, 2,2,6,6-tetramethylpiperidin-4-yl heptanoate]
[1]; decrease in net charge, 1 μM ACh co-applied with TMPH, read-out: IC50 (area)
  IC50: 430 ± 180 nM
[1]; decrease in peak current amplitude, 1 μM ACh co-applied with TMPH, read-out: IC50 (peak)
  IC50: 1100 nM
[1]; [5]
  IC50: 750 ± 200 nM
[1]; ratio
  IC50 recovery/IC50 net charge: 1.7
[2]; decrease in net charge, 30 μM ACh co-applied with TMPH, read-out: IC50 (area)
  IC50: 460 ± 170 nM
[2]; decrease in peak current amplitude, 30 μM ACh co-applied with TMPH, read-out: IC50 (peak)
  IC50: 3700 ± 1200 nM
[2]; [5]
  IC50: 400 ± 120 nM
[2]; ratio
  IC50 net charge/IC50 peak: 0.12
  IC50 recovery/IC50 net charge: 0.87
[3]; after a 5-minute wash
  reversibility of inhibition: significant recovery
[3]; decrease in net charge, 300 μM ACh co-applied with TMPH, read-out: IC50 (area)
  IC50: 1200 ± 200 nM
[3]; decrease in peak current amplitude, 300 μM ACh co-applied with TMPH, read-out: IC50 (peak)
  IC50: 1000 ± 100 nM
[3]; [5]
  IC50: 16000 ± 4000 nM
[3]; ratio
  IC50 net charge/IC50 peak: 1.2
  IC50 recovery/IC50 net charge: 13.3
[4]; after a 5-minute wash
  reversibility of inhibition: readily reversible
[4]; decrease in net charge, ACh co-applied with TMPH, read-out: IC50 (area)
  IC50: 390 ± 50 nM
[4]; decrease in peak current amplitude, ACh co-applied with TMPH, read-out: IC50 (peak)
  IC50: 276 ± 20 nM
[4]; [5]
  IC50: 27000 ± 5500 nM
[4]; ratio
  IC50 net charge/IC50 peak: 1.4
  IC50 recovery/IC50 net charge: 69
